Data: publication PMC11243625, “Synthesis, Docking, and Machine Learning Studies of Some Novel Quinolinesulfonamides–Triazole Hybrids with Anticancer Activity” (Molecules, 2024)
Read-outs that look alike come from different tables or passages of the source.

Experiments:
[1] = test system: NHDF; experiment: WST-1 test, normal human dermal fibroblasts; type: cell-based; conditions: 72 h, WST-1, normal cells
Experimental: (§1) Hybrids 4–14 were tested as anticancer agents against four human cancer cell lines: colon cancer (Caco-2), glioblastoma (SNB-19), lung cancer (A549), ovarian cancer (SKOV-3), and normal human dermal fibroblasts (NHDFs). Cisplatin was used as the reference substance. The results are presented as the compound concentration of the compound (μM) that inhibits the growth of 50% of cancer cells compared to control cells (IC50). A negative value (Neg) means that the compound concentration of the tested hybrids was greater than 500 µM. […] It is generated only by a weak van der Waals interaction with Arg84. […] There is also a visible difference in activity depending on the type of group present on the triazole ring (substituent C in Figure 2). The results obtained indicate that hybrids containing aromatic systems as a C substituent in their structure, especially another quinoline molecule (compounds 9 and 10), have high activity.
(§2) Cell cultures were performed in 96-well plates (Nunc Thermo Fisher Scientific, Waltham, MA, USA). Cells were seeded at 5 × 10^4/well and incubated for 24 h (at 37 °C, 5% CO2, and constant humidity). The medium was replaced with fresh with the addition of test compounds at a concentration of 0.1–100 µg/mL of DMSO and incubated again for another 72 h. After this time, the WST-1 test (Roche Molecular Biochemicals, Mannheim, Germany) was performed to assess the metabolic activity of the cells. Absorbance was measured at λ = 450 nm using a UVM340 microplate reader (Biogenet, Józefów, Poland). Results are expressed as the mean value of at least three independent experiments performed in triplicate.

[2] = test system: A549; experiment: WST-1 test, lung cancer cells; type: cell-based, human; conditions: for IC50: read-out: IC50 A-549
Experimental: as §1, §2

[3] = test system: SKOV-3; experiment: WST-1 test, ovarian cancer cells; type: cell-based, human
Experimental: as §1, §2

[4] = test system: SNB-19; experiment: WST-1 test, glioblastoma cells; type: cell-based, human
Experimental: as §1, §2

[5] = test system: Caco-2; experiment: WST-1 test, colon cancer cells; type: cell-based, human; conditions: Homo sapiens, Caco-2, 72 h
Experimental: Hybrids 4–14 were tested as anticancer agents against four human cancer cell lines: colon cancer (Caco-2), glioblastoma (SNB-19), lung cancer (A549), ovarian cancer (SKOV-3), and normal human dermal fibroblasts (NHDFs).
as §2

| SMILES | IC50 [1] [µM] | IC50 ([2]; 72 h) [µM] | IC50 ([3]; 72 h) [µM] | IC50 ([4]; 72 h) [µM] | IC50 ([1]; Homo sapiens, NHDF) [µM] | IC50 [5] [µM] | IC50 ([2]; Homo sapiens, A549, 72 h) [µM] | melting point [°C] | IC50 ([3]; Homo sapiens, SK-OV-3, 72 h) [µM] | IC50 ([4]; Homo sapiens, SNB-19, 72 h) [µM] | IC50 NHDF [1] | IC50 A-549 ([2]; 72 h) |
| --- | --- | --- | --- | --- | --- | --- | --- | --- | --- | --- | --- | --- |
| N.N.[Cl][Pt][Cl] [Cisplatin, reference compound] | > 500 | 453 | 41.6 | 2.93 | – | – | – | – | – | – | – | – |
| O=S(=O)(NCc1cn(Cc2ccccc2)nn1)c1cccc2cccnc12 [Compound 4a, 8-N-[(1-Benzyl-1H-1,2,3-triazol-4-yl)methyl]quinolinesulfonamide] | – | – | – | – | > 500 | 26.4 | > 500 | 125 to 126 | > 500 | > 500 | – | – |
| CN(Cc1cn(Cc2ccccc2)nn1)S(=O)(=O)c1cccc2cccnc12 [Compound 4b, 8-N-Methyl-N-[(1-benzyl-1H-1,2,3-triazol-4-yl)methyl]quinolinesulfonamide] | – | – | – | – | 191 | 0.4 | 7.72 | 103 to 105 | 66.2 | 1.18 | – | – |
| N#Cc1ccc(Cn2cc(CNS(=O)(=O)c3cccc4cccnc34)nn2)cc1 [Compound 5a, 8-N-{[1-(4-Cyanobenzyl)-1H-1,2,3-triazol-4-yl]methyl}quinolinesulfonamide] | – | – | – | – | > 500 | 2.21 | > 500 | 110 to 111 | > 500 | > 500 | – | – |
| CN(Cc1cn(Cc2ccc(C#N)cc2)nn1)S(=O)(=O)c1cccc2cccnc12 [Compound 5b, 8-N-Methyl-N-{[1-(4-cyanobenzyl)-1H-1,2,3-triazol-4-yl]methyl}quinolinesulfonamide] | – | – | – | – | 9.16 | 0.4 | 0.8 | 112 to 113 | 14.1 | 0.41 | have activity against normal cells | nanomolar concentration range |
| O=S(=O)(NCc1cn(Cc2ccc(F)cc2)nn1)c1cccc2cccnc12 [Compound 6a, 8-N-{[1-(4-Fluorobenzyl)-1H-1,2,3-triazol-4-yl]methyl}quinolinesulfonamide] | – | – | – | – | > 500 | 27.5 | > 500 | 118 to 119 | > 500 | > 500 | – | – |
| CN(Cc1cn(Cc2ccc(F)cc2)nn1)S(=O)(=O)c1cccc2cccnc12 [Compound 6b, 8-N-Methyl-N-{[1-(4-fluorobenzyl)-1H-1,2,3-triazol-4-yl]methyl}quinolinesulfonamide] | – | – | – | – | > 500 | 19.3 | > 500 | 85 to 86 | > 500 | 156 | – | – |
| O=[N+]([O-])c1ccc(Cn2cc(CNS(=O)(=O)c3cccc4cccnc34)nn2)cc1 [Compound 7a, 8-N-{[1-(4-Nitrobenzyl)-1H-1,2,3-triazol-4-yl]methyl}quinolinesulfonamide] | – | – | – | – | 169 | 0.31 | 36.1 | 135 to 136 | 16.9 | 0.83 | – | – |
| CN(Cc1cn(Cc2ccc([N+](=O)[O-])cc2)nn1)S(=O)(=O)c1cccc2cccnc12 [Compound 7b, 8-N-Methyl-N-{[1-(4-nitrobenzyl)-1H-1,2,3-triazol-4-yl]methyl}quinolinesulfonamide] | – | – | – | – | > 500 | 2.47 | > 500 | 103 to 105 | > 500 | 0.41 | – | – |
| O=S(=O)(NCc1cn(CSc2ccccc2)nn1)c1cccc2cccnc12 [Compound 8a, 8-N-[(1-Methylthiophenyl-1H-1,2,3-triazol-4-yl)methyl]quinolinesulfonamide] | – | – | – | – | 40.6 | 14.3 | 3.69 | 106 to 107 | 115 | 72.4 | – | – |
